In patent US20070208011A1, “Supersaturated Benzodiazepine Solutions and Their Delivery” (priority 2005, published 2007):
Where two headings read alike, the source gives them in different places.

What was measured:
[1] = Nasal administration of diazepam and midazolam preparations in two healthy volunteers; settings: for Nasal Discomfort / Nasal Discomfort (maximum): subject self-rating, IN 5 mg dose, n = 2
Method: Approximately 0.5 ml (2.5 mg) was dripped into each nostril over a period of 30 seconds.

[2] = cited from earlier work
[3] = rectal, published data (Cloyd et al, Epilepsia 1998); cited from earlier work
[4] = DZP permeation through blank filter; settings: S from 1 to 6, 30/70 GF/AB vehicle, blank filters
[5] = Diffusion studies through silicone membranes (Franz diffusion cell); settings: for Steady State Flux / Time Lag / Transference: 75 μm silicone membrane
[6] = Comparison of intranasal with published rectal diazepam concentration-time course
[7] = system: patients with SE; settings: intravenous, given within 30 minutes of the onset of SE; cited from earlier work
[8] = in vivo; cited from earlier work
[9] = Lipid-solubility (octanol/water ratio) of benzodiazepines; settings: from Table 1
[10] = clinical; settings: human, plasma, inhaled or intranasal, 5 mg
[11] = cited from earlier work; remark: listed apart in the source
[12] = system: MDCKII-WT cells
Method: (§1) Maden Darby Canine Kidney II wild type (MDCKII-WT) cells were seeded at 43,000 cells/cm^2 on six-well polyester membrane inserts (Transwell®) with a pore size of 0.4 μm. Cells were maintained in Dulbecco's modified Eagle's medium supplemented with 10% fetal bovine serum and 1% penicillin and streptomycin at 37° C. in a humidified incubator with 5% CO2. Media were changed every other day, and cell monolayers were cultured for 4 days before use.
Viability of MDCKII-WT cells was measured by incubating the cells in suspension for 30, 60, and 120 min in various GF/buffer compositions at 37° C. Trypan blue dye was then added into the cell suspension, and incubated for 10 min. A sample was drawn from the suspension and spread on a hemocytometer, and counts of live (transparent) and dead (blue) cells were made.

[13] = system: MDCKII-WT cell monolayer; settings: 0-50% GF with assay buffer, over 30 min
Method: as §1

[14] = system: MDCKII-WT cell monolayer
[15] = system: MDCKII-WT cell monolayer; settings: GF 0 to 50 vol % in upstream vehicle
[16] = human, blood, other: intranasal, 5 mg
[17] = buccal, 5 mg commercial parenteral MDZ, 8 healthy volunteers

## CN1C(=O)CN=C(c2ccccc2)c2cc(Cl)ccc21 [DZP, diazepam]
[1]
  Nasal Discomfort: 1.5
  Nasal Discomfort (maximum): 6.8
[2]; rectal, adults
  time to peak concentrations: 15 to 45 min
[2]; rectal, children
  time to peak concentrations: 5 to 10 min
[3]
  time to maximum concentration: 45 min
[4]
  steady state flux as a function of degree of saturation S: increased linearly with increasing degree of saturation
[5]; S=0.5-6.25, 50:50 GF/water, silicone membrane
  steady state flux as a function of degree of saturation S: increased nearly linearly with increasing degree of saturation
[5]; S=1, 30% GF
  Steady State Flux: 0.823 ± 0.030 μg/(cm^2 · min)
  Time Lag: 1.876 ± 0.165 min
  Transference: 0.823 ± 0.030 μg/(cm^2 · min)
[5]; S=1, 40% GF
  Steady State Flux: 0.826 ± 0.019 μg/(cm^2 · min)
  Time Lag: 1.793 ± 0.020 min
  Transference: 0.826 ± 0.019 μg/(cm^2 · min)
[5]; S=1, 50% GF
  Steady State Flux: 0.824 ± 0.011 μg/(cm^2 · min)
  Time Lag: 1.842 ± 0.119 min
  Transference: 0.824 ± 0.011 μg/(cm^2 · min)
[5]; S=3, 30% GF
  Steady State Flux: 2.309 ± 0.070 μg/(cm^2 · min)
  Time Lag: 1.806 ± 0.135 min
  Transference: 0.770 ± 0.023 μg/(cm^2 · min)
[5]; S=3, 40% GF
  Steady State Flux: 2.310 ± 0.055 μg/(cm^2 · min)
  Time Lag: 1.787 ± 0.091 min
  Transference: 0.770 ± 0.018 μg/(cm^2 · min)
[5]; S=3, 50% GF
  Steady State Flux: 2.321 ± 0.095 μg/(cm^2 · min)
  Time Lag: 1.755 ± 0.134 min
  Transference: 0.774 ± 0.032 μg/(cm^2 · min)
[6]; nasal, 5 mg
  time to maximum concentration: 28 min
[6]; rectally, published data adjusted from 15 mg to 5 mg assuming linear pharmacokinetics
  peak concentration: 128 ng/mL

## O=C1Nc2ccc(Cl)cc2C(c2ccccc2Cl)=NC1O (stereo not shown) [LZP, lorazepam]
[7]
  effective in patients: 60-80%
[8]
  Elimination T½: 480 to 1500 min
  First-pass Effect: Low
[2]; rectal
  time of peak plasma concentrations: 75 min
[9]
  lipid-solubility relative to DZP and MDZ: ⅕

## Cc1ncc2n1-c1ccc(Cl)cc1C(c1ccccc1F)=NC2 [MDZ, midazolam]
[1]; IN commercial formulations: DZP solvents 40% propylene glycol and 10% ethanol, MDZ pH=3
  nasal discomfort (in words): significant discomfort
[1]; [16]
  Tmax: 20 min
  bioavailability: 67.5%
[1]
  Nasal Discomfort: 1.0
  Nasal Discomfort (maximum): 6.0
[10]
  Cmax: 64.6 ng/mL
  bioavailability: 97.9%
[11]; at pH = 3
  Lipid-solubility (Octanol/Water Ratio): at pH = 3: 34
[11]; at pH = 7.5
  Lipid-solubility (Octanol/Water Ratio): at pH = 7.5: 475
[8]
  Elimination T½: 30 to 240 min
  First-pass Effect: High
[2]; IM injection
  time to pharmacological effect comparable to IV diazepam: ≤ 15 minutes
[2]; IM
  time to peak serum concentrations: 20 to 30 min
[2]; [17]
  average bioavailability: 75%
  time to peak serum concentrations: 15 to 90 min
[2]; rectal
  bioavailability: 15-30 % of a dose

## tetrahydrofurfuryl alcohol polyethyleneglycol ether [GF]
[12]; 30 min treatment, GF up to 50 vol %
  viable cells: more than 90%
[12]; 1 h exposure, GF compositions above 30%
  cell viability: marked decease in cell viability
[12]; 2 h exposure, GF compositions equal to or more than 20%
  lethality: 100%
[13]
  TEER values: > 100 Ω·cm2
[14]; GF/AB cosolvent mixtures, 0 to 50 vol % GF
  effect of GF content on permeability of mannitol: permeability of mannitol increases
[14]; all GF/AB cosolvent systems (0-50 vol % GF), t=30 min
  percentage mass transported of mannitol: below 5%
[15]
  effect of GF content on transference of DZP through MDCK cell monolayer: transference increased with increasing GF content
